{"source": "patent US20200239530A1", "about": "“COMPOUNDS AND METHODS OF MODULATING PROTEIN DEGRADATION” (Vividion Therapeutics, Inc., priority 2017, published 2020)", "key": {"[1]": {"target": "T1, ANAPC7 Anaphase-promoting complex subunit 7 (Homo sapiens, UniProt Q9UJX3)", "T1 construct": "Cells were resuspended in cold PBS on ice and sonicated with a probe sonicator to achieve lysis; endogenous in cells", "T1 sequence (Q9UJX3 whole entry, one chain of several)": "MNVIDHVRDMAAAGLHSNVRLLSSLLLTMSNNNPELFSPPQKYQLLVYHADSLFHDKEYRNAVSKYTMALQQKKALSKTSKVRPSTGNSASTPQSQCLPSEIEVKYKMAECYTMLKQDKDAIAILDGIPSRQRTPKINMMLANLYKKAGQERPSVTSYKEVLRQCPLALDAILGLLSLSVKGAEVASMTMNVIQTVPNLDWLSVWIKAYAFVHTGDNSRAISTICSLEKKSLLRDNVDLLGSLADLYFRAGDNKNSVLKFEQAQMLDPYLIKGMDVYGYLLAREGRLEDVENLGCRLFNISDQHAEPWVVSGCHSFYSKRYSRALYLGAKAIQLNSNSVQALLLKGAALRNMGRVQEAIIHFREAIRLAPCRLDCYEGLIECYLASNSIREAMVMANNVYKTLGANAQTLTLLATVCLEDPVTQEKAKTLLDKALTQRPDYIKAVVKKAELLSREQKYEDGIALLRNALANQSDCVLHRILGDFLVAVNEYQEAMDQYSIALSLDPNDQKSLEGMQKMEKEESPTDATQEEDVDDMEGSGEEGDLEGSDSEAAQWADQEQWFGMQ", "experiment": "Cysteine liganding, probe competition", "assay_type": "binding", "in_short": "(§1)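 Probe competition in native proteome: 5 mg/ml lysate, compound 1 hr 25° C, then desthiobiotin iodoacetamide (10 mM stock) 1 hr 25° C; acetone ppt, urea/DTT reduction, iodoacetamide alkylation, trypsin, streptavidin pull-down.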"}, "[2]": {"target": "T2, TRMT1L TRMT1-like protein (Homo sapiens, UniProt Q7Z2T5)", "T2 construct": "Cells were resuspended in cold PBS on ice and sonicated with a probe sonicator to achieve lysis; endogenous in cells", "T2 sequence (Q7Z2T5 1-733)": "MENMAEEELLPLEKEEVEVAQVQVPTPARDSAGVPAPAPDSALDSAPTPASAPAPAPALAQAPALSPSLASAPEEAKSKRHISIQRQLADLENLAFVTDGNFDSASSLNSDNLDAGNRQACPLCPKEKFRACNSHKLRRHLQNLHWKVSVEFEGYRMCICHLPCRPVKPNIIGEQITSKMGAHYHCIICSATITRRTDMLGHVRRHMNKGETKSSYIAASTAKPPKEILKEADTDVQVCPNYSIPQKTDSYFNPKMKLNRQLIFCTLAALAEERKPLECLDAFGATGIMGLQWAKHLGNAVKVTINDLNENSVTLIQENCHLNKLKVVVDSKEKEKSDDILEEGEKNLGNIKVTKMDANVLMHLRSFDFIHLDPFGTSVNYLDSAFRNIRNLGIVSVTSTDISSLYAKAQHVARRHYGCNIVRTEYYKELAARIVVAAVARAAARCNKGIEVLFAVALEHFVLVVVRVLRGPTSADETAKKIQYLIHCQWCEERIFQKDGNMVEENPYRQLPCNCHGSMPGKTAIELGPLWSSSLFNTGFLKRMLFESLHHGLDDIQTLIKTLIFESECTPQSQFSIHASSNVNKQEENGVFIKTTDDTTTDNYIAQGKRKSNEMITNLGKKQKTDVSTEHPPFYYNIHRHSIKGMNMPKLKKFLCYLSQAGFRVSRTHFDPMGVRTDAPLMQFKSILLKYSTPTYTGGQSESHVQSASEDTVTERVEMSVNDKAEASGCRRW", "experiment": "Cysteine liganding, probe competition", "assay_type": "binding", "in_short": "as §1"}, "[3]": {"details": "uniprot Q7Z2T5, in % (unit assumed)"}}, "data": [{"compound": "O=C(CCl)Nc1cc(C(F)(F)F)cc(C(F)(F)F)c1", "note": "[KBO3]", "values": [{"measurement": "100 Max", "setting": "[1]; uniprot Q9UJX3", "result": 60.9}, {"measurement": "100 ave", "setting": "[1]; uniprot Q9UJX3", "result": 47.5}, {"measurement": "500 Max", "setting": "[1]; uniprot Q9UJX3", "result": 73.4}, {"measurement": "500 ave", "setting": "[1]; uniprot Q9UJX3", "result": 68.4}, {"measurement": "100 ave", "setting": "[2]; uniprot Q7Z2T5", "result": "−17.83"}, {"measurement": "500 ave", "setting": "[2]; uniprot Q7Z2T5", "result": 36.38}, {"measurement": "100 Max", "setting": "[2]; [3]", "result": "−4.62"}, {"measurement": "500 Max", "setting": "[2]; [3]", "result": 36.38}]}, {"compound": "COc1ccc2c(c1)CCCN2C(=O)CCl", "note": "[KB02]", "values": [{"measurement": "Liganded", "setting": "[1]; ANAPC7 Res# 329, uniprot Q9UJX3", "result": "YES"}, {"measurement": "Liganded", "setting": "[2]; TRMT1L Res# 239, uniprot Q7Z2T5", "result": "YES"}]}]}
